# Laboratory results published in US8318898B2, “Synthetic peptides for use as inhibitors of neurotransmitter secretion and as inducers of cellular relaxation” (Universite de Lausanne, priority 2005, dated 2012).
# Read-outs that look alike come from different tables or passages of the source. Ends that are not written are not given here.
# Legend:
# [1] = system: PC12 cells; assay: Inhibition of [3H]norepinephrine neurosecretion by PC12 cells; type: cell-based, rat; conditions: for inhibition of neurotransmitter-evoked secretion: concentration not given, peptide alone; for level of inhibition maintained over the 48 hour period: cultured with PC12 cells for 48 hours in the presence or absence of serum, up to 90%; for inhibition of secretion, stability test: 100 μM
# Method: Using the neurosecretion assay described above, peptides fused to the TAT-PTD (L-TAT) were tested for inhibition of neurotransmitters and compared to use of L-TAT alone (SEQ ID NO: 3). In vitro screening for synthetic peptides capable of efficiently and selectively blocking neurotransmitter release in the PC12 cell line grown under defined conditions was performed.
# PC12 cells were washed with DMEM-WM (Dulbecco's Modified Eagle Medium (GIBCO cat. no. 31968) completed with 25 units of penicillin and streptomycin each) and loaded for 1-2 h with [^3H] norepinephrine (NE; 0.5 μCi/ml) in DMEM-CM (DMEM-WM complemented with 6% horse serum and 6% fetal calf serum). Cells were washed for 1 h with DMEM-WM, and then washed 2 times at 5-minute intervals. Basal release was determined by a 15-minutes incubation with CaSB-glucose 5 mM K^+ (CaSB-glucose: 140 mM NaCl, 5 mM KCl, 2 mM CaCl2, 11 mM glucose, [pH 7.4]). The peptides were added to the cells at defined concentrations after loading with NE but before induction of secretion. Cells were depolarized with 85 mM K^+ (CaSB-glucose with Na^+ reduced accordingly) for 15 minutes to determine stimulated release. Superfusate (1 ml) was removed to tubes. Adherent cells were solubilized in CaSB-glucose-0.1% Triton (1 ml/well). The quantities of released and non-released radiolabeled neurotransmitter were determined by liquid scintillation counting of cleared superfusates and cell lysates, respectively. Total uptake was calculated by addition of released and retained radioactivity, and the percentage release was as calculated (released counts/total uptake counts)×100. Results were also expressed as percent inhibition of neurosecretion.
# [2] = cited from earlier work
# [3] = molecular target: T1, furin (Rattus norvegicus, UniProt P23377); type: biochemical
# T1 construct: Furin activity was constitutively detected in PC12-ES cells; endogenous in cells; host or cells: PC12-ES cells (lysate)
# T1 sequence (P23377 108-793): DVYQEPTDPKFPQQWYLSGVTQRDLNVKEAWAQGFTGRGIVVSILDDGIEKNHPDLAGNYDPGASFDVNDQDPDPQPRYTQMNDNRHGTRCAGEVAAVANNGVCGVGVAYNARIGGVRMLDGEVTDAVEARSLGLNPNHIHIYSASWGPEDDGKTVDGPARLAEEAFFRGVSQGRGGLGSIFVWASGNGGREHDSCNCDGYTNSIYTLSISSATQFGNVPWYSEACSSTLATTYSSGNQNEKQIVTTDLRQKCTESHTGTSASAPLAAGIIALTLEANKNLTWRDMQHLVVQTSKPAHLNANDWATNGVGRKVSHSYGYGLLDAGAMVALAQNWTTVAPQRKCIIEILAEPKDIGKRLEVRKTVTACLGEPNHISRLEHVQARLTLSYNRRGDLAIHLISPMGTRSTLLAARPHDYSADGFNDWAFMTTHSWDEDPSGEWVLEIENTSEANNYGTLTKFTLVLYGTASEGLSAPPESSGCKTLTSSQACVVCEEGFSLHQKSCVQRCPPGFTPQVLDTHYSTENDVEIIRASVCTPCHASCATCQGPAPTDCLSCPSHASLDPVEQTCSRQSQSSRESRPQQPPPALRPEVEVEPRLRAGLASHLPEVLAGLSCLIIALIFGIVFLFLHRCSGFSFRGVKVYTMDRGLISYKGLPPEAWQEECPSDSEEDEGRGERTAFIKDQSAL
# Method: To monitor the intracellular furin activity, 80% confluent PC12-ES cells were washed twice with ice-cold phosphate-buffered saline (PBS1×) by centrifugation at 800×g for 5 minutes at 4° C., resuspended in 100 mM HEPES, 1 mM CaCl2, 0.5% TritonX-100, and 1 mM 2-β-mercaptoethanol, pH 7.5, sonicated 6 times at 4° C. for 10 seconds, and then centrifuged at 8000×g for 20 minutes at 4° C. The protein concentration in the samples was determined using a bicinchonic acid protein assay kit (Pierce Chemical Co.).
# Intracellular furin activity was measured with a furin-specific fluorogenic substrate, t-butyloxycarbonyl (Boc)-[…]-7-amino-4-methylcoumarin (MCA). Briefly, the cell lysate (20 μg-60 μg of protein) prepared as described above was incubated with 100 μM Boc-RVRR-MCA in a 96-well flat-bottom black plate for at least 6 hours at room temperature and fluorescence measured by excitation at 365 nm and emission at 450 nm.
# [4] = molecular target: Recombinant furin (Homo sapiens, UniProt P09958); assay: biochemical; type: biochemical
# Recombinant furin, sequence (P09958 108-794): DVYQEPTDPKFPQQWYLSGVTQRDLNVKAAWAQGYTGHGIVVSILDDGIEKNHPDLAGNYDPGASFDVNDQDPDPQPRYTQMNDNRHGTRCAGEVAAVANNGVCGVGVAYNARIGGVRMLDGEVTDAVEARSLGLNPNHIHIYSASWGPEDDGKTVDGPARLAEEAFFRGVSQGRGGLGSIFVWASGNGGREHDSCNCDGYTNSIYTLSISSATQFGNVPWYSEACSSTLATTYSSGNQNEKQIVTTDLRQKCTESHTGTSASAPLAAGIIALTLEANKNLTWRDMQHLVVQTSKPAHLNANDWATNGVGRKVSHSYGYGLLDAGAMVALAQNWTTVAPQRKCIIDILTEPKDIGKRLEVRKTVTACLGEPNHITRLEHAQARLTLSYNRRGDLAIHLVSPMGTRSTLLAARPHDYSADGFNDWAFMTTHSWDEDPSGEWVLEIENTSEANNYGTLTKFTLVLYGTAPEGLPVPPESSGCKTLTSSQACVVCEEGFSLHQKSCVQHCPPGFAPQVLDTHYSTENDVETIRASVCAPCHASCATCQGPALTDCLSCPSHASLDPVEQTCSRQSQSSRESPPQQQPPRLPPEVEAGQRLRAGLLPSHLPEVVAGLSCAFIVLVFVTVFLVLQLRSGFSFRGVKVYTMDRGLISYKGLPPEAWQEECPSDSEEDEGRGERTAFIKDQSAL
# Method: To determine if the peptides described herein have an effect on the activity of PC enzymes which are involved in a condition or disorder such as fibrosis, the effect of the peptides on furin activity in vitro was measured as percent inhibition of cleavage of the furin substrate fluorogenic t-butyloxycarbonyl (Boc)-RVRR-7-amino-4-methylcoumarin (MCA).
# All in vitro enzyme studies were performed at room temperature in a final volume of 50-100 μl in 96-well flat-bottom black plates. The buffer consisted of 100 mM HEPES, 1 mM CaCl2, 0.5% TritonX-100, and 1 mM 2-β-mercaptoethanol pH 7.5. Assays were performed using Boc-RVRR-MCA as fluorogenic substrate at 100 μM. Recombinant furin (0.8 U of activity) was incubated with Boc-RVRR-MCA in the presence or absence of varying concentrations of synthetic peptides D-9Rac/am (SEQ ID NO. 15), L-Bel1 (SEQ ID NO. 3), or L-9K (SEQ ID NO. 6). One unit of activity is defined as the amount of furin that can release 1 μmol of MCA from the fluorogenic Boc-RVRR-MCA per min at 30° C. The release of highly fluorescent 7-amino 4-methyl coumarin (MCA) from the Boc-RVRR-MCA was monitored by a spectrofluorometer instrument at excitation and emission wavelengths of 370 nm/460 nm. […]
# [5] = system: PC12-ES cells; assay: [3H]NE evoked secretion by PC12-ES cells with secretagogues; type: cell-based, rat; conditions: potassium 80 mM, nicotine 0.1 mM or carbachol 1 mM, 15 minutes
# Text: Neurotransmitter Secretion by PC12-ES. PC12 cells offer a number of advantages for studies of regulated secretion. Exocytosis of large dense-core vesicles (LDCVs) in these cells can be easily assayed for the release of radioactive norepinephrine ([^3H]NE) from pre-labeled cells [Greene et al., Brain Res, 129:247-63, 1977; Greene et al., J Neurochem, 30:579-86, 1978; Greene et al., J. Neurochem. 30:549-55, 1978; Greene et al., Brain Res. 138:521-8; 1977; Greene et al., Nature 268:349-51, 1977]. The neurosecretion assay was carried out by measuring [^3H]NE evoked secretion with PC12-ES cells.
# PC12-ES cells were either untreated, treated with STSP (100 nM), or treated with NGF (50 ng/ml) for 48 h before the loading with [^3H]NE and prepared for release measurements. […] Media were collected, and released [^3H]NE as well as the total cell content were determined by liquid scintillation counting. Basal secretion was measured in calcium secretion buffer (CaSB) without secretagogue or CaSB supplemented with 11 mM glucose (CaSB-Glucose). The data are expressed in Table 1 as the percent secretion: [amount released/(amount released+amount in cell lysate)]×100. Net secretion is secretagogue-stimulated release minus basal release.
compound,measurement,setting,value
GYGRRRRRRRRRG [Peptide 9R-D],inhibition of neurotransmitter-evoked secretion,[1],approximately 65%
same,level of inhibition maintained over the 48 hour period,[1],approximately 80%
9R-MRP: SEQ ID NO: 22; fusion peptide (GYGRRRRRRRRRGKKKKKKFSFKKPFKLSGLSFKRNRK; Synthetic peptide 9R-MRP),inhibition of secretion,[1]; 50 μM (mixture: 50 μM each),approximately 70%
Pal-Lys-Thr-Thr-Lys-Ser (Pal-KTTKS) [palmitoyl pentapeptide],improving the effects of photo-aging,[2]; 3 ppm versus retinol 700 ppm,as effective as retinol
same,side effects,[2]; in vivo,not associated with any side effects
"O=C(O)CN(CCN(CC(=O)O)CC(=O)O)CC(=O)O [EDTA, reference compound]",inhibition of intracellular furin activity (in words),[3],inhibited
same,inhibition of in vitro furin activity (in words),[4],effectively suppressed
L-Tat-ESUP-A: SEQ ID NO: 1; ESUP-A fused to the TAT-PTD (GYGRKKRRQRRRGSNKTRIDEANQRATKMLGSG; Synthetic peptide L-Tat-ESUP-A),dose dependence of inhibition of neurosecretion,[1],dose dependent inhibition
same,inhibition of PC12 neurotransmitter secretion,[1]; peptide 10 μM,30%
same,inhibition of PC12 neurotransmitter secretion,[1]; peptide 50 μM,40%
same,inhibition of PC12 neurotransmitter secretion,[1]; peptide 100 μM,50%
same,inhibition of PC12 neurotransmitter secretion,[1]; peptide 250 μM,70%
"NH2-SNKTRIDEANQRATKMLGSG-COOH (H-SNKTRIDEANQRATKMLGSG-OH) [ESUP-A, reference compound]",inhibition of neurotransmitter secretion (in words),[1],only minimal inhibition
same,inhibition of PC12 neurotransmitter secretion,[1]; peptide 100 μM,20%
MRPEDpep: SEQ ID NO: 7 (KKKKKFSFKKPFKLSGLSFKRNRK; Synthetic peptide MRPED),dose dependence of inhibition of neurosecretion,[1],dose dependent inhibition
same,"inhibition of secretion, stability test",[1]; 0 hours,>20%
same,"inhibition of secretion, stability test",[1]; 1 hour,23%
same,"inhibition of secretion, stability test",[1]; 24 hours,15%
same,"inhibition of secretion, stability test",[1]; No Serum,17%
C[N+](C)(C)CCOC(N)=O [Carbachol],percent secretion of [3H]NE,"[5]; CaSB-Glucose, NGF differentiated cells",32.4%
same,percent secretion of [3H]NE,"[5]; CaSB-Glucose, STSP differentiated cells",57%
same,percent secretion of [3H]NE,"[5]; CaSB-Glucose, non-differentiated cells",37.24%
same,percent secretion of [3H]NE,"[5]; CaSB, NGF differentiated cells",27%
same,percent secretion of [3H]NE,"[5]; CaSB, STSP differentiated cells",46.5%
same,percent secretion of [3H]NE,"[5]; CaSB, non-differentiated cells",44.7%
L-Tat-3D-MRP: SEQ ID NO: 10 (GYGRKKRRQRRRGKKKKKFDFKKPFKLDGLDFKRNRK; Synthetic peptide L-Tat-3DMRPED),dose dependence of inhibition of neurosecretion,[1],dose dependent inhibition
"O=C(O)CN(CCOCCOCCN(CC(=O)O)CC(=O)O)CC(=O)O [EGTA, reference compound]",inhibition of intracellular furin activity (in words),"[3]; EDTA 50 mM, EGTA 50 mM, Dec-RVKR-CMK 50 μM",inhibited
same,inhibition of in vitro furin activity (in words),[4]; Boc-RVRR-MCA 100 μM as substrate,effectively suppressed
3D-MRP: SEQ ID NO: 8 (KKKKKFDFKKPFKLDGLDFKRNRK; Synthetic peptide 3DMRPED) [Peptide 3D-MRP],dose dependence of inhibition of neurosecretion,[1],dose dependent inhibition
GRRRRRRRRRGYG [Peptide 9Rrev-D],inhibition of neurotransmitter-evoked secretion,[1],approximately 57%
same,level of inhibition maintained over the 48 hour period,[1],approximately 80%
L-Tat 49-86: SEQ ID NO: 4 (GRKKRRQRRRAHQNSQTHQASLSKQPTSQPRGDPTGKEG; Synthetic peptide L-Tat 49-86),"inhibition of secretion, stability test",[1]; 0 hours,<20%
same,"inhibition of secretion, stability test",[1]; 1 hour,>10%
same,"inhibition of secretion, stability test",[1]; 24 hours,26%
same,"inhibition of secretion, stability test",[1]; 48 hours,25%
same,"inhibition of secretion, stability test",[1]; No Serum,50%
9R-L: SEQ ID NO: 5 (GYGRRRRRRRRRG; Synthetic peptide 9R-L),inhibition of neurotransmitter-evoked secretion,[1],approximately 70%
same,level of inhibition maintained over the 48 hour period,[1],approximately 80%
9R-L-Ac-am: SEQ ID NO: 11 (Ac-GYGRRRRRRRRRG-NH2) [Peptide 9R-L-Ac-am],inhibition of neurotransmitter-evoked secretion,[1],approximately 67%
same,level of inhibition maintained over the 48 hour period,[1],approximately 80%
L-Tat-MRP: SEQ ID NO: 9 (GYGRKKRRQRRRGKKKKKFSFKKPFKLSGLSFKRNRK; Synthetic peptide L-Tat-MRPED),dose dependence of inhibition of neurosecretion,[1],dose dependent inhibition
